± gives the standard deviation of the averaged measurements.
What was measured:
[1] = compound: CN1CCN(c2nc(C3=C(c4c[nH]c5ccccc45)C(=O)NC3=O)c3ccccc3n2)CC1 [SOTRASTAURIN/AEB071]; test: surviving fraction relative to DMSO-only wells; higher = less growth inhibition; settings: exposure time: 5 days
Summary of the method: (§1)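 Surviving fraction was calculated by normalising CellTiter-Glo luminescence to the median of DMSO-only wells. Tumour cell lines in log phase were seeded in 384-well plates at 250–500 cells per well, and 24 hours later were exposed continuously for five days to inhibitors at 0.5, 1, 5, 10, 50, 100, 500 and 1000 nM.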

[2] = compound: CNCc1ccc(-c2[nH]c3cc(F)cc4c3c2CCNC4=O)cc1; test: as above; settings: exposure time: 5 days
Summary of the method: as §1

Row | Test System | surviving fraction ([1]; 0.5 nM) | surviving fraction ([1]; 1 nM) | surviving fraction ([1]; 5 nM) | surviving fraction ([1]; 10 nM) | surviving fraction ([1]; 50 nM) | surviving fraction ([1]; 100 nM) | surviving fraction ([1]; 500 nM) | surviving fraction ([1]; 1000 nM) | surviving fraction ([2]; 0.5 nM) | surviving fraction ([2]; 1 nM) | surviving fraction ([2]; 5 nM) | surviving fraction ([2]; 10 nM) | surviving fraction ([2]; 50 nM) | surviving fraction ([2]; 100 nM) | surviving fraction ([2]; 500 nM) | surviving fraction ([2]; 1000 nM)
1 | HUO3N1 BONE | 1 ± 0.051 | 1.04 ± 0.075 | 1.08 ± 0.025 | 1.08 ± 0.054 | 1.001 ± 0.01 | 1.02 ± 0.025 | 0.897 ± 0.024 | 0.883 ± 0.017 | 1.04 ± 0.061 | 1.02 ± 0.062 | 1.04 ± 0.038 | 0.987 ± 0.099 | 0.933 ± 0.06 | 0.988 ± 0.04 | 0.884 ± 0.039 | 0.85 ± 0.032
2 | JIMT1 BREAST | 0.958 ± 0.039 | 0.941 ± 0.017 | 0.98 ± 0.033 | 0.96 ± 0.02 | 0.975 ± 0.038 | 0.956 ± 0.047 | 0.987 ± 0.037 | 0.992 ± 0.022 | 0.948 ± 0.055 | 0.945 ± 0.052 | 0.98 ± 0.067 | 0.9615 ± 0.0036 | 0.881 ± 0.045 | 0.885 ± 0.05 | 0.864 ± 0.031 | 0.856 ± 0.054
3 | JURKAT HAEMATOPOIETIC AND LYMPHOID TISSUE | 1.08 ± 0.047 | 1.13 ± 0.017 | 1.09 ± 0.042 | 1.08 ± 0.041 | 1.06 ± 0.012 | 1.03 ± 0.022 | 1.06 ± 0.044 | 1.05 ± 0.032 | 1.09 ± 0.018 | 1.1 ± 0.029 | 1.04 ± 0.019 | 1.02 ± 0.024 | 1.01 ± 0.049 | 1.01 ± 0.029 | 0.979 ± 0.021 | 0.916 ± 0.047
4 | KPD BONE | 0.967 ± 0.054 | 0.974 ± 0.034 | 1.08 ± 0.062 | 1.04 ± 0.032 | 1.01 ± 0.031 | 1.08 ± 0.019 | 1.04 ± 0.043 | 1.07 ± 0.059 | 0.975 ± 0.058 | 0.983 ± 0.022 | 1.13 ± 0.15 | 1.05 ± 0.028 | 0.956 ± 0.032 | 0.95 ± 0.022 | 0.876 ± 0.022 | 0.732 ± 0.046
5 | LM7 BONE | 1.03 ± 0.077 | 0.945 ± 0.024 | 1.01 ± 0.075 | 1.05 ± 0.062 | 0.889 ± 0.051 | 0.907 ± 0.049 | 0.803 ± 0.035 | 0.811 ± 0.12 | 0.912 ± 0.043 | 0.965 ± 0.015 | 0.986 ± 0.06 | 1.01 ± 0.016 | 0.752 ± 0.042 | 0.679 ± 0.1 | 0.497 ± 0.013 | 0.451 ± 0.0082
6 | LNCAP PROSTATE | 1.12 ± 0.11 | 1.05 ± 0.11 | 1.06 ± 0.052 | 0.998 ± 0.087 | 1.22 ± 0.069 | 1.16 ± 0.1 | 1.23 ± 0.025 | 1.18 ± 0.039 | 1.09 ± 0.059 | 1.14 ± 0.038 | 1.01 ± 0.095 | 0.907 ± 0.093 | 1.02 ± 0.047 | 0.946 ± 0.013 | 0.969 ± 0.056 | 0.73 ± 0.057
7 | MCF7 BREAST | 0.925 ± 0.066 | 0.917 ± 0.043 | 0.945 ± 0.052 | 0.935 ± 0.036 | 0.941 ± 0.036 | 0.941 ± 0.068 | 0.941 ± 0.053 | 0.966 ± 0.017 | 0.923 ± 0.057 | 0.927 ± 0.072 | 0.921 ± 0.086 | 0.918 ± 0.084 | 0.951 ± 0.058 | 0.93 ± 0.081 | 0.865 ± 0.0098 | 0.924 ± 0.043
8 | MDAMB134 BREAST | 0.907 ± 0.16 | 0.994 ± 0.19 | 0.752 ± 0.12 | 0.9 ± 0.011 | 0.913 ± 0.26 | 0.663 ± 0.12 | 0.724 ± 0.1 | 0.74 ± 0.0085 | 0.811 ± 0.061 | 0.818 ± 0.12 | 0.814 ± 0.051 | 0.8795 ± 0.0078 | 0.703 ± 0.19 | 0.764 ± 0.13 | 0.824 ± 0.21 | 0.986 ± 0.4
9 | MDAMB157 BREAST | 0.923 ± 0.041 | 1 ± 0.048 | 1.07 ± 0.12 | 1.04 ± 0.091 | 1.01 ± 0.03 | 0.971 ± 0.13 | 0.919 ± 0.053 | 0.936 ± 0.031 | 0.959 ± 0.026 | 0.91 ± 0.025 | 1.04 ± 0.053 | 1.03 ± 0.09 | 0.921 ± 0.088 | 1 ± 0.12 | 0.73 ± 0.03 | 0.691 ± 0.015
10 | MDAMB231 BREAST | 0.955 ± 0.013 | 0.974 ± 0.037 | 1.01 ± 0.022 | 0.984 ± 0.031 | 1 ± 0.046 | 1.02 ± 0.0072 | 1.08 ± 0.033 | 1.05 ± 0.024 | 0.937 ± 0.013 | 0.967 ± 0.027 | 0.971 ± 0.06 | 0.959 ± 0.021 | 0.917 ± 0.015 | 0.891 ± 0.037 | 0.824 ± 0.02 | 0.764 ± 0.0086
11 | MDAMB361 BREAST | 0.708 ± 0.053 | 0.758 ± 0.065 | 0.76 ± 0.12 | 0.776 ± 0.026 | 0.577 ± 0.099 | 0.561 ± 0.073 | 0.626 ± 0.099 | 0.591 ± 0.066 | 0.709 ± 0.074 | 0.752 ± 0.04 | 0.672 ± 0.041 | 0.69 ± 0.0053 | 0.543 ± 0.065 | 0.615 ± 0.082 | 0.553 ± 0.09 | 0.589 ± 0.063

Reference: the supplement of paper PMC6045584
